Measurements as given in PubChem BioAssay AID2631 (Broad Institute, 2010).
Results filed as inconclusive are left out. Activity calls are given as the source filed them.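 How the source made its calls: active means EC50 no more than tenfold above the top concentration tested; inconclusive means flat fit with effect between 30% and 70%, or unusable fit; inactive means EC50 beyond tenfold above the top dose.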

System: BJeLR fibroblast viability, alamar blue fluorescence, 48 h
Assay: growth inhibition of engineered Ras-driven BJ cells – cell-based, alamar blue fluorescence, cherrypicked samples, dose response (AID 2631)

Row | Structure (SMILES) | EC50
1 | CCc1ccc(/C=C2\SC(=S)N(CCC(=O)NCCCN3CCOCC3)C2=O)cc1 | > 6.67 µM (inactive)
2 | CCc1ccc(/C=C2/SC(=S)N(CCC(=O)NCCCN3CCOCC3)C2=O)cc1 | > 6.67 µM (inactive)
